Data taken from patent US3932407A, “Optionally substituted 1,2,3,5-tetrahydroimidezo(2,1-b)-quinazolin-2-ones and 6(H)-1,2,3,4-tetrahydropyimido(2,1-b)quinazolin-2-ones” (Bristol-Myers Company, priority 1974, dated 1976).
≈ marks a conversion by molar mass, not a printed value.

Tests used:
blood pressure = test: Blood pressure of genetically hypertensive rats, P.O. 50 mg/kg; assay type: in vivo; conditions: 50 mg./kg. orally, tested as hydrochloride salts, + increase, - decrease in b.p.; for change in vivo at 50 mg/kg: Rattus norvegicus, po
Procedure: The blood pressure of unanesthetized rats and dogs was measured directly by means of a transducer attached to an intra-arterial cannula and in anesthetized dogs by a mercury manometer attached to a carotid cannula.
The compounds of the instant invention were tested as the hydrochloride salts by the above method in genetically hypertensive rats in doses of 50 mg./kg. orally.

[1] = test system: adenosine diphosphate (ADP) induced platelet aggregation; test: In vitro inhibition of ADP induced platelet aggregation (aggregometer method of Born, modified); assay type: cell-based; conditions: Oryctolagus cuniculus; rabbit platelet rich plasma, ADP 0.5 mcg./ml.
Procedure: (§1) The aggregometer method of Born (1), as modified by Mustard et al. (2) was used to assess the in vitro activity of the various compounds as to inhibition of adenosine diphosphate (ADP) and collagen induced platelet aggregation. Platelet rich plasma was separated by centrifugation from citrated (3.8 percent) rabbit blood. ADP in final concentration of 0.5 mcg./ml. or 0.05 ml. of a collagen suspension prepared according to the method described by Evans et al. (3) was used to induce aggregation. The various compounds tested were dissolved in dimethylsulfoxide (DMSO) so that 5 mcl. added to the platelet rich plasma would yield the desired test concentration. Vehicle control trials were done and compared with aggregation induced in platelet rich plasma containing various concentrations of the test compounds. Dose response curves were obtained and Effective Concentration (EC50) values calculated.
(§2) 2. mustard, J. F., Hegardt, B. Rowsell, H. C. and MacMillan, R. L., J. Lab. Clin. Med. 64, 548 (1964).

[2] = test system: ADP induced platelet aggregation; test: In vivo/in vitro ADP induced platelet aggregation after I.P. dosing of rabbits; parameters: species or system rabbit; conditions: Oryctolagus cuniculus, ip, 1 to 2 hours after dosing, dose for 50% inhibition of aggregation
Procedure: (§3) *In vivo/In vitro testing:
(§4) Before dosing the animals, blood samples are taken. The blood is centrifuged to obtain the blood platelet-rich plasma. Aggregation of this plasma is induced with ADP or collagen. This is the control.
(§5) The animals are then dosed with the compounds to be tested (orally or parenterally). Depending upon the route of administration, 1 to 2 hours are allowed to elapse after dosing. Blood is drawn and the same procedure employed as for the control in untreated animals.
The dose required to produce 50% inhibition of the aggregation is determined by dose response data obtained in this manner.

[3] = test system: collagen induced platelet aggregation; test: In vitro inhibition of collagen induced platelet aggregation (aggregometer method of Born, modified); assay type: cell-based; conditions: Oryctolagus cuniculus; rabbit platelet rich plasma, 0.05 ml. collagen suspension
Procedure: as §1, §2
3. Evans, G. Marian M. C., Packham, M. A., Nishizawa, E. E., Mustard, J. F. and Murphy, E. A., J. Exp. Med., 128, 877 (1968).

[4] = test system: ADP induced platelet aggregation; test: In vivo/in vitro ADP induced platelet aggregation after P.O. dosing of dogs; parameters: species or system dog; conditions: 1 to 2 hours after dosing
Procedure: as §3, §4, §5

Compound	change in vivo at 50 mg/kg (blood pressure)	EC50 [1]	ED50 [2]	EC50 [3]	In Vivo/In Vitro Dogs P.O. 5 mg./kg. ADP % Inhibition [4]	Blood Pressure % Change Rats P.O. 50 mg./kg. (blood pressure)
O=C1CN2Cc3ccccc3N=C2N1 [Compound 1, 1,2,3,5-tetrahydroimidazo [2,1-b]-quinazolin-2-one]	-36 ± 6%	6 µg/mL (≈ 32.1 µM)	> 72 mg/kg	2 µg/mL (≈ 10.7 µM)	–	–
O=C1CN2Cc3c(Cl)cccc3N=C2N1 [Compound 2, 6-chloro-1,2,3,5-tetrahydroimidazo[2,1-b]quinazolin-2-one]	-37 ± 8%	1 µg/mL (≈ 4.51 µM)	2 mg/kg	0.02 µg/mL (≈ 0.0902 µM)	–	–
O=C1CN2Cc3cc(Cl)ccc3N=C2N1 [Compound 3]	-4 ± 5%	0.5 µg/mL (≈ 2.26 µM)	> 10 mg/kg	0.2 µg/mL (≈ 0.902 µM)	–	–
O=C1CN2Cc3ccc(Cl)cc3N=C2N1 [Compound 4]	-14%	6 µg/mL (≈ 27.1 µM)	18 mg/kg	1.5 µg/mL (≈ 6.77 µM)	–	–
O=C1CN2Cc3cccc(Cl)c3N=C2N1 [Compound 5]	-10 ± 1%	7 µg/mL (≈ 31.6 µM)	6 mg/kg	0.3 µg/mL (≈ 1.35 µM)	–	–
O=C1CN2Cc3cc(Br)ccc3N=C2N1 [Compound 6, 7-Bromo-1,2,3,5-tetrahydroimidazo[2,1-b]-quinazolin-2-one]	-8 ± 3%	0.4 µg/mL (≈ 1.5 µM)	5 mg/kg	0.2 µg/mL (≈ 0.752 µM)	–	–
O=C1CN2Cc3ccc(F)cc3N=C2N1 [Compound 7]	-27 ± 3%	6 µg/mL (≈ 29.2 µM)	> 10 mg/kg	2 µg/mL (≈ 9.75 µM)	–	–
O=C1CN2Cc3cc([N+](=O)[O-])ccc3N=C2N1 [Compound 8, 7-Nitro-1,2,3,5-tetrahydroimidazo-[2,1-b]quinazolin-2-one]	5 ± 2%	2 µg/mL (≈ 8.61 µM)	> 10 mg/kg	0.2 µg/mL (≈ 0.861 µM)	–	–
Nc1ccc2c(c1)CN1CC(=O)NC1=N2 [Compound 9, 7-Amino-1,2,3,5-tetrahydroimidazo-[2,1-b]quinazolin-2-one]	-10 ± 14%	50 µg/mL (≈ 247 µM)	–	6 µg/mL (≈ 29.7 µM)	–	–
Cc1cccc2c1CN1CC(=O)NC1=N2 [Compound 10, 6-methyl-1,2,3,5-tetrahydroimidazo-[2,1-b]quinazolin-2-one]	-37 ± 8%	0.5 µg/mL (≈ 2.48 µM)	0.6 mg/kg	0.1 µg/mL (≈ 0.497 µM)	76%	–
Cc1ccc2c(c1)CN1CC(=O)NC1=N2 [Compound 11]	–	2 µg/mL (≈ 9.94 µM)	> 10 mg/kg	0.3 µg/mL (≈ 1.49 µM)	–	–
Cc1cccc2c1N=C1NC(=O)CN1C2 [Compound 12]	-22 ± 10%	4 µg/mL (≈ 19.9 µM)	> 10 mg/kg	3 µg/mL (≈ 14.9 µM)	–	–
COc1cccc2c1CN1CC(=O)NC1=N2 [Compound 13, 6-methoxy-1,2,3,5-tetrahydroimidazo-[2,1-b]quinazolin-2-one]	-20 ± 14%	0.5 µg/mL (≈ 2.3 µM)	4 mg/kg	0.2 µg/mL (≈ 0.921 µM)	19%	–
COc1ccc2c(c1)CN1CC(=O)NC1=N2 [Compound 14, 7-methoxy-1,2,3,5-tetrahydroimidazo[2,1-b]quinazolin-2-one]	-19 ± 4%	1 µg/mL (≈ 4.6 µM)	4 mg/kg	0.2 µg/mL (≈ 0.921 µM)	17%	–
COc1cccc2c1N=C1NC(=O)CN1C2 [Compound 15]	-16 ± 3%	–	–	–	–	–
COc1ccc2c(c1OC)CN1CC(=O)NC1=N2 [Compound 16, 6,7-dimethoxy-1,2,3,5-tetrahydroimidazo[2,1-b]quinazolin-2-one]	–	0.4 µg/mL (≈ 1.62 µM)	0.7 mg/kg	–	–	–
COc1cc2c(cc1OC)N=C1NC(=O)CN1C2 [Compound 17]	26%	5 µg/mL (≈ 20.2 µM)	4 mg/kg	–	0%	–

Compound	change in vivo at 50 mg/kg (blood pressure)	EC50 [1]	ED50 [2]	EC50 [3]	In Vivo/In Vitro Dogs P.O. 5 mg./kg. ADP % Inhibition [4]	Blood Pressure % Change Rats P.O. 50 mg./kg. (blood pressure)
O=C1CN2Cc3cc4c(cc3N=C2N1)OCO4 [Compound 18]	-25 ± 12%	0.7 µg/mL (≈ 3.03 µM)	> 50 mg/kg	0.07 µg/mL (≈ 0.303 µM)	–	–
O=C1CCN2Cc3ccccc3N=C2N1 [Compound 19, 6-[H]-1,2,3,4-Tetrahydropyrimido[2,1-b]-quinazolin-2-one]	-32 ± 4%	25 µg/mL (≈ 124 µM)	–	4 µg/mL (≈ 19.9 µM)	–	–
O=C1CCN2Cc3c(Cl)cccc3N=C2N1 [Compound 20]	-12 ± 1%	6 µg/mL (≈ 25.5 µM)	8 mg/kg	0.7 µg/mL (≈ 2.97 µM)	–	–
O=C1CCN2Cc3cc(Br)ccc3N=C2N1 [Compound 21, 8-Bromo-6-[H]-1,2,3,4-tetrahydropyrimido[2,1-b]quinazolin-2-one]	–	3 µg/mL (≈ 10.7 µM)	9 mg/kg	1.5 µg/mL (≈ 5.35 µM)	–	Toxic
Cc1cccc2c1CN1CCC(=O)NC1=N2 [Compound 22]	-26 ± 9%	3 µg/mL (≈ 13.9 µM)	> 10 mg/kg	0.3 µg/mL (≈ 1.39 µM)	–	–
Cc1ccc2c(c1)CN1CCC(=O)NC1=N2 [Compound 23]	-7 ± 2%	16 µg/mL (≈ 74.3 µM)	–	2 µg/mL (≈ 9.29 µM)	–	–
Cc1cccc2c1N=C1NC(=O)CCN1C2 [Compound 24]	-19%	–	–	–	–	–
COc1cccc2c1CN1CCC(=O)NC1=N2 [Compound 25]	-5 ± 3%	2 µg/mL (≈ 8.65 µM)	8 mg/kg	0.4 µg/mL (≈ 1.73 µM)	–	–
COc1ccc2c(c1)CN1CCC(=O)NC1=N2 [Compound 26]	-19 ± 6%	6 µg/mL (≈ 25.9 µM)	> 10 mg/kg	1.5 µg/mL (≈ 6.49 µM)	–	–
COc1cccc2c1N=C1NC(=O)CCN1C2 [Compound 27]	1%	–	–	–	–	–
COc1cc2c(cc1OC)N=C1NC(=O)CCN1C2 [Compound 28]	7%	–	–	32 µg/mL (≈ 122 µM)	–	–
CC1c2ccccc2N=C2NC(=O)CN21 (stereo not drawn) [Compound 29]	-28%	2 µg/mL (≈ 9.94 µM)	35 mg/kg	7 µg/mL (≈ 34.8 µM)	–	–
O=C1CN2Cc3c(ccc4ccccc34)N=C2N1 [Compound 39]	-59%	–	–	–	–	–
Cc1c(Cl)ccc2c1CN1CC(=O)NC1=N2 [Compound 45, 7-Chloro-6-methyl-1,2,3,5-tetrahydroimidazo[2,1-b]quinazolin-2-one]	–	0.09 µg/mL (≈ 0.382 µM)	–	0.012 µg/mL (≈ 0.0509 µM)	46 ±8%	–
Cc1cccc2c1C(C)N1CC(=O)NC1=N2 (stereo not drawn) [Compound 50, 5,6-dimethyl-1,2,3,5-tetrahydroimidazo[2,1-b]quinazolin-2-one]	-49%	–	–	–	–	–
Cc1ccc2c(c1)C(C)N1CC(=O)NC1=N2 (stereo not drawn) [Compound 51, 5,7-Dimethyl-1,2,3,5-tetrahydroimidazo-[2,1-b]quinazolin-2-one]	-34%	–	–	–	–	–
